What was measured:
[1] = test system: mutant HIV-1 with I84V/L90M mutations in the protease gene; type: cell-based; conditions: fold difference in EC50, mutant vs. wild type
[2] = test system: recombinant HIV-1 strain, protease 10F/46I/71V/82T/90M
[3] = test system: recombinant HIV-1 strains with resistance mutations in the protease gene; assay: Cross-resistance profile assay, whole panel of mutant viruses; type: cell-based; conditions: {}
[4] = test system: recombinant HIV-1 strain, protease 48V/54V/71V/82S
[5] = test system: recombinant HIV-1 strain, protease 46I/84A
[6] = test system: recombinant HIV-1 strain, protease 10I/48V/54V/82A
[7] = test system: recombinant HIV-1 strain, protease 10R/46I/82T/84V
[8] = test system: recombinant HIV-1 strain, protease 54V/71V/82S
[9] = test system: recombinant HIV-1 strain, protease 10I/48V/71V/82A/90M
[10] = test system: recombinant HIV-1 strain, protease 46I/47V/50V
WT HIV-1 = assay: microbe, parasite or virus in culture; type: cell-based; conditions: Human immunodeficiency virus 1, read-out: EC50 [nM] WT HIV-1
[11] = test system: recombinant HIV-1 strain, protease 30N/50S/82I/88D
[12] = target: recombinant HIV-1 protease (Human immunodeficiency virus type 1 group M subtype B, UniProt P04585); assay: biochemical; type: biochemical; conditions: Ki (pM), class symbols, Table 10
in vitro = conditions: human
[13] = test system: recombinant HIV-1 strain, protease 10I/84V/71V/73S/90M
[14] = target: human leukocyte elastase (huLE) (Homo sapiens, UniProt P08246); conditions: 10 µM
Sequence of human leukocyte elastase (huLE) (P08246 30-267): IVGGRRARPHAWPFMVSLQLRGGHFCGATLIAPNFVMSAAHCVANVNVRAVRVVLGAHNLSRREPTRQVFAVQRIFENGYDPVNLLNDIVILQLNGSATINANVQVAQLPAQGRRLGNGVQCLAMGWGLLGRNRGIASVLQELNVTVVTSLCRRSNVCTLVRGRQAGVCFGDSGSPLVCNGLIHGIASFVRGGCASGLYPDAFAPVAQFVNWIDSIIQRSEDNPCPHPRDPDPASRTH

[15] = target: porcine liver carboxylesterase (PLCE) (Sus scrofa, UniProt Q29550); assay: biochemical; conditions: read-out: Relative Activity (%)
Sequence of porcine liver carboxylesterase (PLCE) (Q29550 19-566): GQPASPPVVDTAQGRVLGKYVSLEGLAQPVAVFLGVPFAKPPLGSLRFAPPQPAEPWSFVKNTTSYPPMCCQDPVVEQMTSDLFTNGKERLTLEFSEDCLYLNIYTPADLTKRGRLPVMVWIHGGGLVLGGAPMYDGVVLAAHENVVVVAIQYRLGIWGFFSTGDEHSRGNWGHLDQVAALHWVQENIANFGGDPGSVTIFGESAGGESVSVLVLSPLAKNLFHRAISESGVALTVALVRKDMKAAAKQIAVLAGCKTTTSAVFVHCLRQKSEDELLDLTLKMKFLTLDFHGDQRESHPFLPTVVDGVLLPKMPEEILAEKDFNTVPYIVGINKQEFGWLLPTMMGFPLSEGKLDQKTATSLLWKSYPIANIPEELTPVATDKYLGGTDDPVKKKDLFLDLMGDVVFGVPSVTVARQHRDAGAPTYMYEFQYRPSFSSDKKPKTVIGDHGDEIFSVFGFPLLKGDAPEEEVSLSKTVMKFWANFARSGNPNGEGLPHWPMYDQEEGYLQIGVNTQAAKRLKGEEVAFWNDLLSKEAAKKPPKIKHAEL

GS-7340 Ester Hydrolase = target: T1, GS-7340 Ester Hydrolase (Homo sapiens, UniProt P10619); assay: biochemical; conditions: read-out: IC50 (μM) GS-7340 Ester Hydrolase
T1 construct: from tissue; host or cells: human peripheral blood mononuclear cells (extract and column pools)
T1 sequence (P10619 29-326 limits assumed): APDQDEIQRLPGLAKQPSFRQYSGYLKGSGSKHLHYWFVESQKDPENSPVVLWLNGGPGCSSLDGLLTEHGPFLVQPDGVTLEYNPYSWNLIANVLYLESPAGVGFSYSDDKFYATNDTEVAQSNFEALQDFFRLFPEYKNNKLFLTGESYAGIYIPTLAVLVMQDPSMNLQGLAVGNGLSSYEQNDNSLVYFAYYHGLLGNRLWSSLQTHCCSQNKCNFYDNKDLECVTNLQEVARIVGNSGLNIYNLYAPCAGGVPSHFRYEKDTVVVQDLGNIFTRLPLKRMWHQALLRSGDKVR
T1 sequence (P10619 327-480 limits assumed): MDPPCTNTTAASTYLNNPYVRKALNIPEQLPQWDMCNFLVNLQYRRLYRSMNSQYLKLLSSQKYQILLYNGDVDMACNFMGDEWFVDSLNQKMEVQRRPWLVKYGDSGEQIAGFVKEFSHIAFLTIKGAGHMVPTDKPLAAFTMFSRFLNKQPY

| Structure (SMILES) | Fold Change in EC50 Relative to WT HIV-1 [2] | Total No. of Resistant Viruses [3] | Fold Change in EC50 Relative to WT HIV-1 [4] | Fold Change in EC50 Relative to WT HIV-1 [5] | Fold Change in EC50 Relative to WT HIV-1 [7] | Fold Change in EC50 Relative to WT HIV-1 [9] | Fold Change in EC50 Relative to WT HIV-1 [10] | EC50 (WT HIV-1) [nM] | further results |
| --- | --- | --- | --- | --- | --- | --- | --- | --- | --- |
| CCC[C@@]1(CCc2ccccc2)CC(O)=C([C@H](CC)c2cccc(NS(=O)(=O)c3ccc(C(F)(F)F)cn3)c2)C(=O)O1 [Tipranavir] | 3 | 1 | 2 | 1 | 5 | 0.3 | 0.5 | 80 | I84V/L90M fold change [1]: + (>3 to ≦10); Fold Change in EC50 Relative to WT HIV-1 [6]: 0.4; Fold Change in EC50 Relative to WT HIV-1 [8]: 3.5; Fold Change in EC50 Relative to WT HIV-1 [11]: 0.5 |
| CCOC(=O)C(C)OP(=O)(COc1ccc(CC(NC(=O)OC2COC3OCCC23)C(O)CN(CC(C)C)S(=O)(=O)c2ccc(OC)cc2)cc1)Oc1ccccc1 (centres unmarked) [drawing 658 R1=OPh R2=Lac-Et] |  |  |  |  |  |  |  |  | Ki [12]: 10 to 100 pM; CC50 at 5 days (in vitro): 5000 to 50000 nM |
| Cc1cccc(C)c1OCC(=O)N[C@@H](Cc1ccccc1)[C@@H](O)C[C@H](Cc1ccccc1)NC(=O)[C@H](C(C)C)N1CCCNC1=O [Lopinavir] | 7.5 | 6 | 60 | 9 | 11 | 4.5 | 19 | 8 | Fold Change in EC50 Relative to WT HIV-1 [13]: 11 |
| O=c1oc(Cl)c(Cl)c2ccccc12 [3,4-dichloroisocoumarin] |  |  |  |  |  |  |  |  | Relative Activity (%) [14]: 25%; activity at 1 µM [15]: 100%; activity at 10 µM [15]: 100%; activity at 100 µM [15]: 90%; activity at 1000 µM [15]: 20%; IC50 (GS-7340 Ester Hydrolase): 4 µM |
